{"source": "patent US9974767B2", "about": "“Statins in the treatment of muscular dystrophies and myopathies” (University of Washington, priority 2014, dated 2018)", "type_in_all_cases": "in vivo, mouse", "key": {"[1]": {"system": "atrogin-1", "experiment": "Atrogin-1 mRNA in quadriceps muscles, qPCR", "details": "old mdx Sim mice", "excerpt": "Another pathway that has been implicated in statin myopathy is muscle atrophy mediated by atrogin-1, a ubiquitin-protein ligase that stimulates protein breakdown. Atrogin-1 is induced by statin treatment in animal models and humans with statininduced myopathy. However, in DMD, atrogin-1 levels are consistently lower than in normal muscle and are not increased at any stage of the disease.\nTotal RNA was isolated from quadriceps of WT, mdx, and simvastatintreated mdx mice using Trizol (Life Technologies) and further purified using an RNAeasy Kit (Qiagen). Real-time quantitative RT-PCR (qPCR) was performed using TaqMan chemistry and the ABI 7000 sequence detection system with 50 ng of RNA, ABI Fast Virus 1-Step Master Mix reagents, and primer sets specific for atrogin-1 and HPRT (Applied Biosystems). Data were obtained from 5 mice in each treatment group and normalized to the internal HPRT control."}, "[2]": {"system": "mdx mice", "experiment": "Plasma creatine kinase (CK) activity as measure of whole-body muscle damage"}, "[3]": {"system": "H2O2 (ROS)", "experiment": "H2O2 levels in diaphragm muscle homogenates, amplex red assay", "details": "old mdx mice", "excerpt": "FIG. 14A. Western blot (top) showing the levels of the autophagy proteins LC3A (upper band) and LC3B (lower band) for mdx Con and mdx Sim. GAPDH is shown as a loading control. Pooled data (bottom) for LC3A and LC3B. **P<0.01 compared to mdx Con. FIG. 14B. Hydrogen peroxide (H2O2) levels in diaphragm muscle homogenates, as quantified with a fluorescent amplex red assay. *P<0.05 compared to mdx Con. FIG. 14C. Atrogin-1 mRNA levels in quadriceps muscles were quantified by qPCR and normalized to the internal control (HPRT). *P<0.05 compared to WT Con. **P<0.01 compared to WT Con.\nTo further explore this idea, we also measured the levels of the ROS (H2O2) in diaphragm muscle homogenates. […] This highlights important differences between dystrophic muscle, where statins reduce oxidative stress derived from NOX2, and normal muscle susceptible to statin myopathy, where mitochondrial ROS increases oxidative stress."}, "[4]": {"system": "Phospholamban (PLB), SERCA2a", "experiment": "SERCA2a, PLB S-16 and total PLB expression in cardiac muscle, immunoblotting", "details": "old mdx mice, vs mdx Con", "excerpt": "Aberrant Ca2+ handling in dystrophic cardiomyocytes leads to impaired relaxation, which is a major cause of diastolic dysfunction. […] Phospholamban (PLB) is a major inhibitor of SERCA activity and can therefore depress cardiac function."}, "[5]": {"system": "mdx mice", "experiment": "Diaphragm specific force, ex vivo muscle strips", "excerpt": "Therefore, it is often difficult to fully evaluate the therapeutic potential of these compounds. When compared with results obtained with a clinically relevant dystrophin gene therapy approach, the magnitude of increased diaphragm force in Simvastatin-treated mice (25%) is quite impressive. Specifically, systemic delivery of a micro-dystrophin-expressing AAV vector to mdx mice provides a slightly lower (20%) average improvement in diaphragm specific force.\nIn mdx mice, the diaphragm is the most severely affected skeletal muscle and diaphragm dysfunction is a major cause of respiratory failure in DMD.\nThe diaphragm most closely recapitulates the functional deficits and fibrotic deposition that occur in DMD. […] The replacement of muscle fibers with fibrotic connective tissue is a major cause of impaired muscle force generation in DMD and therefore an important therapeutic target. […] Quantification of total collagen I levels in diaphragm muscles by hydroxyproline assay also indicated a 50% reduction in fibrosis for mdx Sim mice (FIG. 13E).\nDiaphragm function, ex vivo, was measured as described previously. Briefly, diaphragm strips (2-3 mm wide) were perfused with a physiological solution bubbled with 95% O2-5% CO2. Stimulation was provided by two platinum electrodes, attached along the sides of the chamber. A lengthforce curve, established using 120 Hz isometric contractions (300 ms duration spaced 1 min apart, established the optimum length (length producing maximum tetanic force), which was later used to calculate the specific force (force divided by cross-sectional area)."}, "[6]": {"system": "mdx mice", "experiment": "Voluntary running wheel activity over 2 days", "details": "P=0.13"}, "[7]": {"system": "LC3A/LC3B", "experiment": "LC3A and LC3B expression in diaphragm (autophagy), Western blot", "details": "old mdx Sim vs mdx Con", "excerpt": "Autophagy is an important cellular pathway for degrading damaged proteins, organelles and protein aggregates, which are then recycled by the cell for energy use. Impaired autophagy can trigger cell death and in skeletal muscle, proper regulation of autophagy is essential for normal cellular and physiological function. Both mdx and DMD muscles show evidence of reduced autophagy and treatment of mdx mice with a low protein diet triggered autophagy, which reduced inflammation and fibrosis and enhanced muscle function. […] A key protein marker of autophagic flux is the microtubule-associated protein 1A/1B light chain 3, which has a cytosolic form (LC3A) and a lapidated form (LC3B). An increased level of LC3B relative to LC3A is indicative of enhanced autophagic flux.\nTibialis anterior (TA) muscle function was measured in situ. Mice were anaesthetized with an intraperitoneal injection of Avertin (625 mg/kg) and placed on a heated metal platform (37° C.). The distal TA tendon was dissected free and sutured to the lever arm of the force and length control system (305C-LR, Aurora Scientific). […] Fatigue recovery was measured every 2 min up to 10 min post-fatigue. […] Membranes were incubated with enhanced chemiluminescence (ECL) reagent (Amersham) and bands were detected by the FluorChem M, imaging system (Protein Simple)."}}, "note": "“And” between values parts separate entries of the source, which are not always exact repeats. Identical values can stand only once.", "data": [{"compound": "CCC(C)(C)C(=O)O[C@H]1C[C@@H](C)C=C2C=C[C@H](C)[C@H](CC[C@@H]3C[C@@H](O)CC(=O)O3)[C@H]21", "note": "[Simvastatin, simvastatin]", "values": [{"measurement": "atrogin-1 mRNA levels", "setting": "[1]", "result": "not significantly different from mdx Con"}, {"measurement": "reduction in plasma creatine kinase (CK) activity level", "setting": "[2]; mdx Sim vs mdx Con, oral 5-10 mg/kg/day for 8 months from 3 weeks of age", "result": 85, "unit": "%"}, {"measurement": "reduction of CK levels compared to untreated mdx mice", "setting": "[2]; mdx mice, 8 months, drinking water 10 mg/kg/day", "result": "~8", "unit": "fold"}, {"measurement": "less H2O2 compared to mdx Con", "setting": "[3]", "result": 30, "unit": "%"}, {"measurement": "increase of PLB S-16", "setting": "[4]", "result": 55, "unit": "%"}, {"measurement": "improvement of diaphragm specific force", "setting": "[5]; mdx Sim vs mdx Con, 8 months treatment, stimulation 1 to 120 Hz", "result": "25% and 20-25%"}, {"measurement": "improvement of diaphragm specific force", "setting": "[5]; mdx Sim vs mdx Con, 8 months treatment, stimulation 1 to 120 Hz, listed as simvastatin", "result": "20-25%"}, {"measurement": "improvement of diaphragm specific force", "setting": "[5]; old mdx mice, 2 months treatment from 12 months of age, 10 to 120 Hz, vs untreated mdx", "result": "20-30%"}, {"measurement": "voluntary running wheel activity, more than control mdx mice", "setting": "[6]", "result": 20, "unit": "%"}, {"measurement": "increase of LC3B", "setting": "[7]", "result": 40, "unit": "%"}]}]}
